Source: patent US4239664A, “Anti-thrombogenic PVP-heparin polymer” (Research Corporation, priority 1978, dated 1980)

Columns and labels:
anticoagulant activity = experiment: Biological (anticoagulant) activity of heparin and PVP-heparins; assay type: biochemical; details: Table I; heparin 100
[1] = in vivo; cited from earlier work

## Heparin
Anticoagulant activity
  % Biological Activity: 100%
other
  Solubility in Water: 70 g/100 ml
[1]
  dose dependence of half-life in man: does not increase
  half-life of heparin in man: 1 - 11/2
